In patent publication US9149618B2, “Built-in non-verbal instructional device integratable to applicators” (NANOMED SKINCARE, INC., priority 2010, dated 2015):
Like-named read-outs stand apart in the source and are kept apart here.

Tests used:
[1] = In vitro permeation study, Franz-type diffusion cells, porcine ear skin; conditions: for Permeation rates of LC / Cumulative amount of LC: porcine ear skin, FMA; for Cumulative amount of LC: 8 h
[2] = Skin penetration of active agent on applicator pre-treated skin
[3] = In vivo permeation study: pharmacokinetics and absolute bioavailability of LC in rats; conditions: rat; for bioavailability / AUC(0-inf) / Cmax / Tmax: male, Sprague-Dawley, plasma; for AUC(0-inf): AUC0-∞; for Plasma concentration: intravenous 200 mg/rat
From the text: Male Sprague-Dawley rats (250 g±10 g) were equally divided into four groups (3 for each): group A, B, C and D. Before administration, all rats allowed to acclimatize for one week. One day before administration, rats were fasted overnight but allowed access to water. The hair of abdominal skin was carefully shaved by electric clippers for Group A and B. The rats in group A were pretreated by FMA with an area of 2 cm^2, the group B was untreated as a control. Then hydrogel patch containing LC 750 mg was applied to each rat by an adhesive housing for 6 h. Group C and Group D were control groups of oral and intravenous injection administration of 1 ml LC solution (200 mg/ml). A volume of 0.5 ml blood samples were taken before administration and at predetermined time intervals after LC administration. Plasma samples were immediately separated by centrifugation at 4000×g for 7 mins, and stored at −80° C. until assay.
Pretreatment method of samples: 120 μl of plasma was deproteinized with 600 μl of 0.6 M perchloric acid. The mixture was shaken for 30 s and allowed to stand in an ice bath for about 15 mins. After centrifuged at 4000×g for 7 mins, 500 μl of supernatant was transferred to a new tube in which 300 μl of 0.5 M K2CO3 was added, the mixture was shaken for 30 s and incubated in an ice-bath for 15 mins. Precipitate of KClO4 was removed by centrifugation at 4000×g for 7 mins, and 200 μl of the supernatant with free LC was separated for the assay.
Assays: The concentration of free LC in serum was determined by enzymatic assay kit with a limitation detection of 0.8 μg/ml.
Maximum plasma concentration (Cmax) and the time to reach this peak (Tmax) were directly identified from the pharmacokinetic curves (LC plasma concentration versus time). Area under the plasma concentration-time curve (AUC0→∞) was calculated by using the trapezoidal rule. Absolute bioavailability (A.B.) of LC after oral and FMA administration comparing with intravenous administration was calculated using the following equation:

[4] = In vitro permeation study, Franz-type diffusion cells, rat skin; type: in vitro ADME
From the text: Male Sprague-Dawley rats (220-250 g) were provided by Beijing Weitong Lihua Experimental Animals Ltd. Co. (Beijing China). Forty-eight hours before the test, rats were anesthetized by ether, and then the abdominal hair of each rat was shaved with an electric hair clipper. At the beginning of in vitro studies, animals were euthanized using carbon dioxide and full-thickness skins were removed. All research protocols adhered to the Guide for the Care and Use of Laboratory Animals (1996).
(§1) The method of the percutaneous absorption study adheres to the Test Guideline 428 of Organization for Economic Cooperation and Development (2004). The experiment was performed with a system employing Franz-type glass diffusion cells. The temperature in the receptor chamber was maintained at physiological temperature of 37.0±0.1° C. with an external, constant temperature circulating water bath.
(§2) Skin samples were treated using FMA delivery system. The insertion force was provided by the applicator. The skins without FMA treatment were used as control. The skin was mounted on a receptor chamber (2.5 ml) with the stratum corneum side facing upward into the donor chamber with effective permeation area of 0.66 cm^2. The receptor and donor chambers were filled with PBS solution, and the receptor fluid was continuously stirred with a magnetic bar at 280 rpm to maintain homogeneity. After 1 h equilibration, the solution in the receptor chamber was replaced with fresh PBS, and 300 μl of LC solution or 300 mg of LC gel was applied on the skin in the donor chamber, which was then covered with a parafilm to avoid any evaporation process. The samples of receptor cell were withdrawn through at predetermined time intervals and the receptor phase was immediately refreshed by equal volume of PBS buffer to keep a constant volume. The samples were analyzed by HPLC/UV. The results were expressed as the mean±S.D. (n=3-4 independent samples).
The quantitative determination of LC was performed by HPLC using methanol-190 mM KH2PO4 water (87:13) as mobile phase at a flow rate of 0.6 ml/min, by LC-2010A (Shimadzu, Japan). The injection volume was 20 μl. The analysis was performed in a YMC-Pack ODS-A C18 column with dimensions of 250 mm×4.6 mm i.d., 5 μm particle size (YMC Inc., USA). The column eluant was monitored at 225 nm. The detection limit is 20 μg ml^−1. The inter- and intra-day variability was less than 5%.
The cumulative amount of drug permeated per unit area versus time was plotted. The permeation rates of LC were calculated from the slope of linear portion of the plots. Data analysis was carried out with Microsoft Excel, Version 2000. Results were presented as the mean±S.D. (n=3-4 independent samples). Statistically significant differences were determined using the analysis of variance (ANOVA) with P<0.05 as a minimal level of significance.

[5] = In vitro permeation study, Franz-type diffusion cells, human cadaver skin; type: in vitro ADME
Method: Samples of full-thickness dermatomed human cadaver skins (≈800 μm) were obtained from the Burns Institute, 304th Clinical Department, The General Hospital of PLA, Trauma Center of Postgraduate Medical College and were free from overt pathology. The skin samples were kept frozen in liquid nitrogen and used within 3 months.
as §1
as §2, with “The samples of receptor cell were withdrawn through at predetermined time intervals and the receptor phase was immediately refreshed by equal volume of PBS buffer to keep a constant volume.” left out
The quantitative determination of LC was performed by HPLC using methanol-190 mM KH2PO4 water (87:13) as mobile phase at a flow rate of 0.6 ml/min, by LC-2010A (Shimadzu, Japan). […] The column eluant was monitored at 225 nm. […]
The cumulative amount of drug permeated per unit area versus time was plotted. The permeation rates of LC were calculated from the slope of linear portion of the plots. […] Statistically significant differences were determined using the analysis of variance (ANOVA) with P<0.05 as a minimal level of significance.

[6] = With FMA, CP980 gel patch 750 mg/rat, 6 h application

Q: Which “Apparent dose of LC” value [6] does the source give for `C[N+](C)(C)C[C@H](O)CC(=O)[O-]` [LC, (3R)-3-hydroxy-4-trimethylazaniumylbutanoate] here?
A: The value was 200 mg/rat.

Q: What about the “The residual amount in patch” value [6] of the same molecule?
A: Its value is 550 mg/rat.

Q: What about the “The residual amount in patch” value (Without FMA, CP980 gel patch 750 mg/rat, 6 h application) of the same molecule?
A: The value was 764 mg/rat.

Q: What about the “Difference between residual and initial content of patch” value (rat, in vivo) of the same molecule?
A: The value was “no significant difference”.

Q: And the “Permeation rates, FMA” value ([1]; porcine ear skin dermatomed ≈800 μm, FMA pretreatment, donor 640 mg/mL)?
A: Its value is 11.08 ± 2.05 mg/cm^2/h.

Q: And the “Permeation rates, Passive Diffusion” value ([1]; porcine ear skin dermatomed ≈800 μm, without FMA, donor 640 mg/mL)?
A: The value was 0.37 ± 0.04 mg/cm^2/h.

Q: What about the “Permeation rates of LC” value ([1]; donor concentration 650 mg/ml) of the same molecule?
A: Its value is 11.08±2.05 mg/cm^2/h.

Q: What about the “Cumulative amount of LC” value ([1]; donor concentration 650 mg/ml) of the same molecule?
A: The value was 93.23±17.76 mg/cm^2.

Q: What about the “Permeation rates of LC” value ([1]; donor concentration 800 mg/ml) of the same molecule?
A: Its value is 11.80±1.50 mg/cm^2/h.

Q: What about the “Cumulative amount of LC” value ([1]; donor concentration 800 mg/ml) of the same molecule?
A: Its value is 97.20±12.60 mg/cm^2.

Q: What about the “Skin penetration speed on applicator pre-treated skin” value [2] of the same molecule?
A: The value was 10 times faster.

Q: And the bioavailability ([3]; iv, 200 mg)?
A: The bioavailability was 100%.

Q: What about the AUC(0-inf) ([3]; iv, 200 mg, Intravenous 200 mg/rat) of the same molecule?
A: Its AUC(0-inf) is 3680 µg·h/mL.

Q: And the Cmax ([3]; po, 200 mg)?
A: The Cmax was 40 ± 11 µg/mL.

Q: And the Tmax ([3]; po, 200 mg)?
A: Its Tmax is 2 h.

Q: And the bioavailability ([3]; po, 200 mg)?
A: The bioavailability was 8%.

Q: And the AUC(0-inf) ([3]; po, 200 mg, Oral 200 mg/rat)?
A: The AUC(0-inf) was 309 µg·h/mL.

Q: What about the Cmax ([3]; topical or ocular, 750 mg) of the same molecule?
A: The Cmax was 530 ± 86 µg/mL.

Q: What about the Tmax ([3]; topical or ocular, 750 mg) of the same molecule?
A: Its Tmax is 4 h.

Q: And the bioavailability ([3]; topical or ocular, 750 mg)?
A: Its bioavailability is 22%.

Q: And the AUC(0-inf) ([3]; topical or ocular, 750 mg, FMA delivery 750 mg/rat)?
A: The AUC(0-inf) was 3020 µg·h/mL.

Q: What about the “Cmax after FMA delivery relative to oral administration” value ([3]; FMA 750 mg/rat vs oral 200 mg/rat) of the same molecule?
A: The value was “about 13 fold”.

Q: And the “AUC0-∞” value ([3]; FMA delivery 750 mg/rat)?
A: Its value is 3049 µg·h/mL.

Q: And the Plasma concentration ([3]; at 3 min)?
A: The Plasma concentration was 3900 ± 420 µg/mL.

Q: What about the Plasma concentration ([3]; at 2 h) of the same molecule?
A: Its Plasma concentration is 270 ± 50 µg/mL.

Q: And the “Permeation rate through rat skin relative to human skin” value ([4]; after FMA-puncture)?
A: Its value is 3.7 times.

Q: What about the “Permeation rate through rat skin relative to human skin” value ([4]; passive diffusion) of the same molecule?
A: Its value is “about 13.8 times”.

Q: What about the ER (enhancement ratio, FMA permeation rates/passive permeation rates) ([4]; rat skin) of the same molecule?
A: The ER (enhancement ratio, FMA permeation rates/passive permeation rates) was 16.

Q: And the “Permeation rates, FMA” value ([4]; rat skin full thickness, FMA pretreatment, donor 640 mg/mL)?
A: The value was 40.16 ± 3.97 mg/cm^2/h.

Q: And the “Permeation rates, Passive Diffusion” value ([4]; rat skin full thickness, without FMA, donor 640 mg/mL)?
A: Its value is 2.49 ± 0.40 mg/cm^2/h.

Q: What about the ER (enhancement ratio, FMA permeation rates/passive permeation rates) ([5]; human skin) of the same molecule?
A: The ER (enhancement ratio, FMA permeation rates/passive permeation rates) was 59.

Q: And the “Permeation rates, FMA” value ([5]; human skin dermatomed ≈800 μm, FMA pretreatment, donor 640 mg/mL)?
A: Its value is 10.65 ± 2.12 mg/cm^2/h.

Q: What about the “Permeation rates, Passive Diffusion” value ([5]; human skin dermatomed ≈800 μm, without FMA, donor 640 mg/mL) of the same molecule?
A: The value was 0.18 ± 0.02 mg/cm^2/h.
